According to patent US20250163104A1, “MACROCYCLIC IMMUNOMODULATORS” (priority 2021, published 2025):
*1 amine or outer side, *2 acyl side, *3 side chain or, on linkers, in order; H or OH if unused. Where a SMILES comes first, the peptide text is derived from it. Bridges are numbered along the chain shown (N, C = ends). [ ]: non-standard residue; d: D form. The star is where a group is joined. Bip = N[C@@H](Cc1ccc(-c2ccccc2)cc1)C(=O)O; Phe(4-NH2) = Nc1ccc(C[C@H](N)C(=O)O)cc1; Phe(3-Me) = Cc1cccc(C[C@H](N)C(=O)O)c1; Phe(4-Me) = Cc1ccc(C[C@H](N)C(=O)O)cc1; γGlu = O=C(O)[C@H](CCC(=O)[*:2])N[*:1]; 4Pal = N[C@@H](Cc1ccncc1)C(=O)O; Cha = N[C@@H](CC1CCCCC1)C(=O)O; Cit = NC(=O)NCCC[C@H](N)C(=O)O; Carboxymethyl = O=C(O)C*; Orn = NCCC[C@H](N)C(=O)O; Pra = C#CC[C@H](N)C(=O)O; Dab = NCC[C@H](N)C(=O)O; Dap = NC[C@H](N)C(=O)O

biological target: T1, human PD-1 / PD-L1-Ig binding on Jurkat cell line over-expressing human PD-1 (Jurkat-PD-1) (Homo sapiens, UniProt Q15116); assay: Jurkat-PD-1 Cell Binding High-Content Screening Assay (CBA); format: cell-based; conditions: Jurkat-PD-1 cells, PE-labeled PD-L1-Ig 20 nM final; read-out: Jurkat HPD1_PDL1 IC50
T1 construct: expressed in transfected cells; host or cells: Jurkat
T1 sequence (Q15116 25-288): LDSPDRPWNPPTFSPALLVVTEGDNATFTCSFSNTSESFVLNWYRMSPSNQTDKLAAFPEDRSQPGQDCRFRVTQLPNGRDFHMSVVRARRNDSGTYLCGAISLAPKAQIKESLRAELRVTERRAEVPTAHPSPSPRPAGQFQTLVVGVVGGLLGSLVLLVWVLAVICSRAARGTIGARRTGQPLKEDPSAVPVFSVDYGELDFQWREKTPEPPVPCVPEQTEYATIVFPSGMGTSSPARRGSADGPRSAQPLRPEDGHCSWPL
Outline: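 PE-PD-L1-Ig 20 nM final; cells in DMEM/10% FCS; cpd pre-incubation 2 h, 37° C; ligand 1 h; PFA fix + Hoechst 33342; high-content imaging read-out.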

In order of rising IC50:
1. Cc1cccc(C[C@@H]2NC(=O)[C@H](CC(=O)O)NC(=O)[C@H](Cc3ccncc3)NC(=O)[C@H](Cc3ccc(OCC(=O)O)cc3)NC(=O)CSC[C@@H](C(=O)N[C@@H](C)C(N)=O)NC(=O)[C@H]([C@@H](C)O)NC(=O)[C@H](C(C)C)NC(=O)[C@H](CC3CCCCC3)NC(=O)[C@H](CCN)NC(=O)[C@@H](CC(C)C)NC(=O)[C@H](CCCN)NC(=O)[C@H](CCCNC(N)=O)NC(=O)[C@H](Cc3ccc(-c4ccccc4)cc3)NC(=O)[C@H](C(C)C)NC2=O)c1 [Compound 1325] ({CH2CO}-Y(Carboxymethyl)[4Pal]D[Phe(3-Me)]V[Bip][Cit][Orn][dL][Dab][Cha]VTCA-NH2; thioether N-14)  3.1 nM
2. C#CC[C@H](NC(=O)CC[C@H](NC(=O)[C@H](C)NC(=O)[C@@H]1CSCC(=O)N[C@@H](CN)C(=O)N[C@@H](Cc2ccc(OCC(=O)O)cc2)C(=O)N[C@@H](CC(=O)O)C(=O)N[C@@H](Cc2cccc(C)c2)C(=O)N[C@@H](Cc2ccc(OCC(=O)O)cc2)C(=O)N[C@@H](Cc2ccc(-c3ccccc3)cc2)C(=O)N[C@@H](Cc2ccc(OCC(=O)O)cc2)C(=O)N[C@@H](CCCN)C(=O)N[C@H](CC(C)C)C(=O)N[C@@H](CCN)C(=O)N[C@@H](CC2CCCCC2)C(=O)N[C@@H](C(C)C)C(=O)N[C@@H]([C@@H](C)O)C(=O)N1)C(=O)O)C(N)=O [Compound 1807] ({CH2CO}-[Dap]Y(Carboxymethyl)D[Phe(3-Me)]Y(Carboxymethyl)[Bip]Y(Carboxymethyl)[Orn][dL][Dab][Cha]VTCA[γGlu][Pra]-NH2; thioether N-14)  4.6 nM
3. Cc1cccc(C[C@@H]2NC(=O)[C@H](CC(=O)O)NC(=O)[C@H](Cc3ccc(O)cc3)NC(=O)[C@H](CC(N)=O)NC(=O)CSC[C@@H](C(=O)N[C@@H](C)C(N)=O)NC(=O)[C@H]([C@@H](C)O)NC(=O)[C@H](C(C)C)NC(=O)[C@H](CC3CCCCC3)NC(=O)[C@H](CCN)NC(=O)[C@@H](CC(C)C)NC(=O)[C@H](CCCN)NC(=O)[C@H](CCC(=O)O)NC(=O)[C@H](Cc3ccc(-c4ccccc4)cc3)NC(=O)[C@H](C(C)C)NC2=O)c1 [Compound 1420] ({CH2CO}-NYD[Phe(3-Me)]V[Bip]E[Orn][dL][Dab][Cha]VTCA-NH2; thioether N-14)  7.5 nM
4. CCC[C@@H]1NC(=O)[C@H](Cc2c[nH]c3ccccc23)NC(=O)[C@H](CC(=O)O)NC(=O)[C@H](Cc2ccc(OCC(=O)O)cc2)NC(=O)[C@H](CN)NC(=O)CSC[C@@H](C(=O)N[C@@H](C)C(N)=O)NC(=O)[C@H]([C@@H](C)O)NC(=O)[C@H](C(C)C)NC(=O)[C@H](CC2CCCCC2)NC(=O)[C@H](CCN)NC(=O)[C@@H](CC(C)C)NC(=O)[C@H](CCCN)NC(=O)[C@H](CCCNC(N)=O)NC(=O)[C@H](Cc2ccc(-c3ccccc3)cc2)NC1=O [Compound 1355]  8.2 nM
5. CC(C)C[C@H]1NC(=O)[C@H](CCCN)NC(=O)[C@H](Cc2cnc[nH]2)NC(=O)[C@H](Cc2ccc(-c3ccccc3)cc2)NC(=O)[C@H](C(C)C)NC(=O)[C@H](Cc2c[nH]c3ccccc23)NC(=O)[C@H](CC(=O)O)NC(=O)[C@H](Cc2ccc(OCC(=O)O)cc2)NC(=O)[C@H](Cc2ccccc2)NC(=O)CSC[C@@H](C(=O)N[C@@H](CC(N)=O)C(N)=O)NC(=O)[C@H](CO)NC(=O)[C@H](C(C)C)NC(=O)[C@H](CC2CCCCC2)NC(=O)[C@H](CCN)NC1=O [Compound 2560] ({CH2CO}-FY(Carboxymethyl)DWV[Bip]H[Orn][dL][Dab][Cha]VSCN-NH2; thioether N-14)  9.4 nM
6. Cc1ccc(C[C@@H]2NC(=O)[C@H](CN)NC(=O)CSC[C@@H](C(=O)N[C@@H](C)C(N)=O)NC(=O)[C@H]([C@@H](C)O)NC(=O)[C@H](C(C)C)NC(=O)[C@H](CC3CCCCC3)NC(=O)[C@H](CCN)NC(=O)[C@@H](CC(C)C)NC(=O)[C@H](CCCN)NC(=O)[C@H](CCCNC(N)=O)NC(=O)[C@H](Cc3ccc(-c4ccccc4)cc3)NC(=O)[C@H](C(C)C)NC(=O)[C@H](Cc3c[nH]c4ccccc34)NC(=O)[C@H](CC(=O)O)NC2=O)cc1 [Compound 2108] ({CH2CO}-[Dap][Phe(4-Me)]DWV[Bip][Cit][Orn][dL][Dab][Cha]VTCA-NH2; thioether N-14)  19.9 nM
7. CC(C)C[C@@H]1NC(=O)[C@H](CCN)NC(=O)[C@@H](CC(C)C)NC(=O)[C@H](CCN)NC(=O)[C@H](C(C)C)NC(=O)[C@H](Cc2ccc(-c3ccccc3)cc2)NC(=O)[C@H](C(C)C)NC(=O)[C@H](Cc2c[nH]c3ccccc23)NC(=O)[C@H](CC(N)=O)NC(=O)[C@H](Cc2ccc(O)cc2)NC(=O)[C@H](CC(N)=O)NC(=O)CSC[C@@H](C(=O)NCC(N)=O)NC(=O)[C@H]([C@@H](C)O)NC(=O)[C@H](C(C)C)NC1=O [Compound 1086] ({CH2CO}-NYNWV[Bip]V[Dab][dL][Dab]LVTCG-NH2; thioether N-14)  20.5 nM
8. CCC[C@@H]1NC(=O)[C@H](Cc2c[nH]c3ccccc23)NC(=O)[C@H](CC(=O)O)NC(=O)[C@H](Cc2ccc(OCC(=O)O)cc2)NC(=O)[C@H](CN)NC(=O)CSC[C@@H](C(=O)N[C@@H](C)C(N)=O)NC(=O)[C@H]([C@@H](C)O)NC(=O)[C@H](C(C)C)NC(=O)[C@H](CC2CCCCC2)NC(=O)[C@H](CCN)NC(=O)[C@@H](CC(C)C)NC(=O)[C@H](CCCN)NC(=O)[C@H](CCC(=O)O)NC(=O)[C@H](Cc2ccc(-c3ccccc3)cc2)NC1=O [Compound 1719]  21 nM
9. CC(C)C[C@@H]1NC(=O)[C@H](CC2CCCCC2)NC(=O)[C@H](CCN)NC(=O)[C@@H](CC(C)C)NC(=O)[C@H](CCCN)NC(=O)[C@H](CCCNC(N)=O)NC(=O)[C@H](Cc2ccc(-c3ccccc3)cc2)NC(=O)[C@H](C(C)C)NC(=O)[C@H](Cc2c[nH]c3ccccc23)NC(=O)[C@H](CC(=O)O)NC(=O)[C@H](Cc2ccc(OCC(=O)O)cc2)NC(=O)[C@H](CN)NC(=O)CSC[C@@H](C(=O)N[C@@H](C)C(N)=O)NC(=O)[C@H]([C@@H](C)O)NC1=O [Compound 1322] ({CH2CO}-[Dap]Y(Carboxymethyl)DWV[Bip][Cit][Orn][dL][Dab][Cha]LTCA-NH2; thioether N-14)  21.3 nM
10. CC(C)C[C@H]1NC(=O)[C@H](CCCN)NC(=O)[C@H](CCC(=O)O)NC(=O)[C@H](Cc2ccc(-c3ccccc3)cc2)NC(=O)[C@H](C(C)C)NC(=O)[C@H](Cc2c[nH]c3ccccc23)NC(=O)[C@H](CC(=O)O)NC(=O)[C@H](Cc2ccc(OCC(=O)O)cc2)NC(=O)[C@H](CN)NC(=O)CSC[C@@H](C(=O)N[C@@H](C)C(N)=O)NC(=O)[C@H]([C@@H](C)O)NC(=O)[C@H](C(C)C)NC(=O)[C@H](CC2CCCCC2)NC(=O)[C@H](CC(N)=O)NC1=O [Compound 1512] ({CH2CO}-[Dap]Y(Carboxymethyl)DWV[Bip]E[Orn][dL]N[Cha]VTCA-NH2; thioether N-14)  22.9 nM
11. CC(C)C[C@H]1NC(=O)[C@H](CCCN)NC(=O)[C@H](CCC(=O)O)NC(=O)[C@H](Cc2ccc(-c3ccccc3)cc2)NC(=O)[C@H](C(C)C)NC(=O)[C@H](Cc2c[nH]c3ccccc23)NC(=O)[C@H](CC(=O)O)NC(=O)[C@H](Cc2ccc(OCC(=O)O)cc2)NC(=O)[C@H](CN)NC(=O)CSC[C@@H](C(=O)N[C@@H](C)C(N)=O)NC(=O)[C@H]([C@@H](C)O)NC(=O)[C@H](C(C)C)NC(=O)[C@H](Cc2ccc(N)cc2)NC(=O)[C@H](CCN)NC1=O [Compound 1473] ({CH2CO}-[Dap]Y(Carboxymethyl)DWV[Bip]E[Orn][dL][Dab][Phe(4-NH2)]VTCA-NH2; thioether N-14)  801 nM
